Measured values from patent US11445724B2, “Insecticidal compounds” (SYNGENTA PARTICIPATIONS AG, priority 2013, dated 2022).

Experiments:
Format in all cases: in vivo
[1] = tested on: Plutella xylostella (Diamond back moth); assay: Plutella xylostella (Diamond back moth) larval mortality, artificial diet in 24-well MTP; settings: 144 h, application rate 200 ppm (concentration in well 18 ppm), L2 larvae, larval mortality after 6 days
[2] = tested on: Diabrotica balteata (Corn root worm); assay: Diabrotica balteata (Corn root worm) larval mortality, artificial diet in 24-well MTP; settings: 120 h, application rate 200 ppm (concentration in well 18 ppm), L2 larvae, larval mortality after 5 days
[3] = tested on: Tetranychus urticae (Two-spotted spider mite); assay: Tetranychus urticae (Two-spotted spider mite) mortality, sprayed bean leaf discs; settings: foliar, 192 h, 200 ppm spray on bean leaf discs, mixed ages, egg, larval and adult mortality after 8 days
[4] = tested on: Thrips tabaci (Onion thrips); assay: Thrips tabaci (Onion thrips) mortality, sprayed sunflower leaf discs; settings: foliar, 168 h, 200 ppm spray on sunflower leaf discs, mixed ages, mortality after 7 days
[5] = tested on: Myzus persicae (Green peach aphid); assay: Myzus persicae (Green peach aphid) mortality, sprayed sunflower leaf discs; settings: foliar, 144 h, 200 ppm spray on sunflower leaf discs, mixed ages, mortality 6 DAT
[6] = tested on: Myzus persicae (Green peach aphid); assay: Myzus persicae (Green peach aphid) mortality, test compounds mixed with Sucrose solution under Parafilm; settings: 120 h, 12.5 ppm in Sucrose solution, infested pea seedlings on Parafilm, mortality 5 days after infestation
[7] = tested on: Spodoptera littoralis (Egyptian cotton leafworm); assay: Spodoptera littoralis (Egyptian cotton leafworm) mortality, sprayed cotton leaf discs; settings: foliar, 72 h, 200 ppm spray on cotton leaf discs, L1 larvae, mortality 3 DAT

CCN(C(=O)c1ccc([N+](=O)[O-])cc1)c1cccc(C(=O)Nc2c(Br)cc(C(F)(C(F)(F)F)C(F)(F)F)cc2OC(F)F)c1F [Compound 103]
≥ 80%: pest or weed control at 200 ppm [1] | pest or weed control at 200 ppm [2] | pest or weed control at 200 ppm [3] | pest or weed control at 200 ppm [4] | pest or weed control at 200 ppm [5] | pest or weed control at 12.5 ppm [6] | pest or weed control at 200 ppm [7]

CCN(C(=O)c1cccc(F)c1F)c1cccc(C(=O)Nc2c(Br)cc(C(F)(C(F)(F)F)C(F)(F)F)cc2OC(F)F)c1F [Compound 108]
≥ 80%: pest or weed control at 200 ppm [1] | pest or weed control at 200 ppm [2] | pest or weed control at 200 ppm [3] | pest or weed control at 200 ppm [4] | pest or weed control at 200 ppm [5] | pest or weed control at 12.5 ppm [6] | pest or weed control at 200 ppm [7]

CCN(C(=O)c1ccc(F)cc1F)c1cccc(C(=O)Nc2c(Br)cc(C(F)(C(F)(F)F)C(F)(F)F)cc2OC(F)F)c1F [Compound 109]
≥ 80%: pest or weed control at 200 ppm [1] | pest or weed control at 200 ppm [2] | pest or weed control at 200 ppm [3] | pest or weed control at 200 ppm [4] | pest or weed control at 200 ppm [5] | pest or weed control at 12.5 ppm [6] | pest or weed control at 200 ppm [7]

CCN(C(=O)c1ccccc1)c1cccc(C(=O)Nc2c(Cl)cc(C(F)(C(F)(F)F)C(F)(F)F)cc2OC(F)F)c1F [Compound 119]
≥ 80%: pest or weed control at 200 ppm [1] | pest or weed control at 200 ppm [2] | pest or weed control at 200 ppm [3] | pest or weed control at 200 ppm [4] | pest or weed control at 200 ppm [5] | pest or weed control at 12.5 ppm [6] | pest or weed control at 200 ppm [7]

CCN(C(=O)c1ccc(F)cc1)c1cccc(C(=O)Nc2c(Cl)cc(C(F)(C(F)(F)F)C(F)(F)F)cc2OC(F)F)c1F [Compound 120]
≥ 80%: pest or weed control at 200 ppm [1] | pest or weed control at 200 ppm [2] | pest or weed control at 200 ppm [3] | pest or weed control at 200 ppm [4] | pest or weed control at 200 ppm [5] | pest or weed control at 12.5 ppm [6] | pest or weed control at 200 ppm [7]

CCN(C(=O)c1ccc(F)cc1Cl)c1cccc(C(=O)Nc2c(Cl)cc(C(F)(C(F)(F)F)C(F)(F)F)cc2OC(F)F)c1F [Compound 122]
≥ 80%: pest or weed control at 200 ppm [1] | pest or weed control at 200 ppm [2] | pest or weed control at 200 ppm [3] | pest or weed control at 200 ppm [4] | pest or weed control at 200 ppm [5] | pest or weed control at 12.5 ppm [6] | pest or weed control at 200 ppm [7]

CCN(C(=O)c1ccc(F)cc1)c1cccc(C(=O)Nc2c(Br)cc(C(F)(C(F)(F)F)C(F)(F)F)cc2OC(F)F)c1F [Compound 128]
≥ 80%: pest or weed control at 200 ppm [1] | pest or weed control at 200 ppm [2] | pest or weed control at 200 ppm [3] | pest or weed control at 200 ppm [4] | pest or weed control at 200 ppm [5] | pest or weed control at 12.5 ppm [6] | pest or weed control at 200 ppm [7]

CCN(C(=O)c1ccc([N+](=O)[O-])cc1Cl)c1cccc(C(=O)Nc2c(Br)cc(C(F)(C(F)(F)F)C(F)(F)F)cc2OC(F)F)c1OC [Compound 135]
≥ 80%: pest or weed control at 200 ppm [1] | pest or weed control at 200 ppm [2] | pest or weed control at 200 ppm [3] | pest or weed control at 200 ppm [4] | pest or weed control at 200 ppm [5] | pest or weed control at 12.5 ppm [6] | pest or weed control at 200 ppm [7]

CCN(C(=O)c1ccc(F)cc1)c1cccc(C(=O)Nc2c(Br)cc(C(F)(C(F)(F)F)C(F)(F)F)cc2OC(F)F)c1OC [Compound 139]
≥ 80%: pest or weed control at 200 ppm [1] | pest or weed control at 200 ppm [2] | pest or weed control at 200 ppm [3] | pest or weed control at 200 ppm [4] | pest or weed control at 200 ppm [5] | pest or weed control at 12.5 ppm [6] | pest or weed control at 200 ppm [7]

CCN(C(=O)c1ccc(F)cc1Cl)c1cccc(C(=O)Nc2c(Br)cc(C(F)(C(F)(F)F)C(F)(F)F)cc2OC(F)F)c1OC [Compound 141]
≥ 80%: pest or weed control at 200 ppm [1] | pest or weed control at 200 ppm [2] | pest or weed control at 200 ppm [3] | pest or weed control at 200 ppm [4] | pest or weed control at 200 ppm [5] | pest or weed control at 12.5 ppm [6] | pest or weed control at 200 ppm [7]

CCN(C(=O)c1ccc(F)cc1)c1cccc(C(=O)Nc2c(Cl)cc(C(F)(C(F)(F)F)C(F)(F)F)cc2OC(F)F)c1OC [Compound 156]
≥ 80%: pest or weed control at 200 ppm [1] | pest or weed control at 200 ppm [2] | pest or weed control at 200 ppm [3] | pest or weed control at 200 ppm [4] | pest or weed control at 200 ppm [5] | pest or weed control at 12.5 ppm [6] | pest or weed control at 200 ppm [7]

CCN(C(=O)c1ccc(F)cc1Cl)c1cccc(C(=O)Nc2c(Cl)cc(C(F)(C(F)(F)F)C(F)(F)F)cc2OC(F)F)c1OC [Compound 158]
≥ 80%: pest or weed control at 200 ppm [1] | pest or weed control at 200 ppm [2] | pest or weed control at 200 ppm [3] | pest or weed control at 200 ppm [4] | pest or weed control at 200 ppm [5] | pest or weed control at 12.5 ppm [6] | pest or weed control at 200 ppm [7]

CCN(C(=O)c1ccc([N+](=O)[O-])cc1)c1cccc(C(=O)Nc2c(Br)cc(C(F)(C(F)(F)F)C(F)(F)F)cc2OC(F)F)c1OC [Compound 162]
≥ 80%: pest or weed control at 200 ppm [1] | pest or weed control at 200 ppm [2] | pest or weed control at 200 ppm [3] | pest or weed control at 200 ppm [4] | pest or weed control at 200 ppm [5] | pest or weed control at 12.5 ppm [6] | pest or weed control at 200 ppm [7]
